Results: patent US20140323593A1, “METHODS AND APPARATUS FOR THE CONTROL OF ADENOSINE TRIPHOSPHATE SYNTHASE ACTIVITY WITHIN LIVING ORGANISMS, AND CONDITIONING OF WATER-BASED FLUIDS AND SUBSTANCES USING MAGNETIC FIELD EXPOSURES OR THEIR WITHDRAWAL” (priority 2013, published 2014)

Columns and labels:
leukemic cell K562 = experiment: average reductions in chromosome numbers (karyotype contraction) in K562; type: cell-based, human
Excerpt: First, we observed that 5 different cancer cell lines representative of the most common human cancers display a reduction in their chromosome numbers when exposed to 60-Hz MFs (Appendix 1). Reductions in chromosome numbers result from metabolic restriction (Li et al., 2012), which can be caused by impaired ATPS function.
Fourth, Russian physicists (Semikhina and Kiselev, 1981) observed resonances for water at specific frequency-amplitude combinations that are broadened by the presence of even small levels of impurities. They detected one maximum at 156.2-Hz and 15.45 μT for 7° C. pure water (Semikhina et al, 1988). In our experiments compiling average chromosome losses over frequency in anoxic K562 (5% carbon dioxide and 37° C.) 6-day tests at 1 μT, a wide resonance was measured as follows: −3.6±0.79 at 50-Hz, −9.36±1.06 at 60-Hz, −12.71±1.82 at 120-Hz and −9.8±1.31 at 155-Hz. […] The ATPS resonance at […] we documented is indeed wider than that reported by Semikhina for pure water. […]
Our laboratory has detected ATPSI at all tested frequencies and at all MF intensities above 25 nT using measurements of karyotype contraction (see Appendix 1) in numerous cell lines: K562 and HEL (erythro-leukemias). […] In our experiments, ATPSI detected by karyotype contractions varied only weakly with field intensities between 25 nT and 5 μT, but probably cover the range of 10 nT to 879 μT. […]

[1] = system: 60 cancer cell lines maintained by the US National Cancer Institute (NCI-60); conditions: mean over NCI-60 cell lines; read-out: IC50 (the concentration inhibiting proliferation rate by 50%), mean; cited from earlier work

CN(C)C(=N)N=C(N)N [Metformin]
average reductions in chromosome numbers (leukemic cell K562; K562, substance alone for 3 days, metformin 0.01 mg/l, resistin 40 ng/l): 9
average reductions in chromosome numbers (losses) with 1 μT added (leukemic cell K562; K562, 1 μT magnetic field added to metformin 0.01 mg/l or resistin 40 ng/l, 1 μT alone 7.5): 11±0.34

CC[C@H]1/C=C/C=C/C[C@@H](C)[C@H](O)[C@@](C)(O)C(=O)[C@@H](C)[C@H](O)[C@@H](C)C(=O)[C@@H](C)[C@H](O)[C@@H](C)/C=C/C(=O)O[C@@H]2[C@H](C)[C@H](CC1)O[C@]1(CC[C@H](C)[C@H](C[C@@H](C)O)O1)[C@H]2C [oligomycin]
IC50 [1]: 300 nM
